Source: ChEMBL document CHEMBL4507274 (2021)

Columns and labels:
[1] = system: Tyrosine-protein kinase ABL1 (Homo sapiens), P00519 [T315I]; conditions: Compound concentration 100.0 nM
[2] = biological target: Activin receptor type-1 (Homo sapiens) (UniProt Q04771); conditions: Compound concentration 100.0 nM
[3] = biological target: Activin receptor type-2A (Homo sapiens) (UniProt P27037); conditions: Compound concentration 100.0 nM
[4] = biological target: Atypical kinase COQ8A, mitochondrial (Homo sapiens) (UniProt Q8NI60); conditions: Compound concentration 100.0 nM
[5] = biological target: RAC-beta serine/threonine-protein kinase (Homo sapiens) (UniProt P31751); conditions: Compound concentration 100.0 nM
[6] = system: ALK tyrosine kinase receptor (Homo sapiens), Q9UM73 [L1196M]; conditions: Compound concentration 100.0 nM
[7] = biological target: Mitogen-activated protein kinase kinase kinase 6 (Homo sapiens) (UniProt O95382); conditions: Compound concentration 100.0 nM
[8] = biological target: Aurora kinase B (Homo sapiens) (UniProt Q96GD4); conditions: Compound concentration 100.0 nM
[9] = biological target: Bone morphogenetic protein receptor type-1B (Homo sapiens) (UniProt O00238); conditions: Compound concentration 100.0 nM
[10] = biological target: Serine/threonine-protein kinase BRSK2 (Homo sapiens) (UniProt Q8IWQ3); conditions: Compound concentration 100.0 nM
[11] = biological target: Dual specificity protein kinase CLK3 (Homo sapiens) (UniProt P49761); conditions: Compound concentration 100.0 nM
[12] = biological target: Casein kinase I isoform alpha-like (Homo sapiens) (UniProt Q8N752); conditions: Compound concentration 100.0 nM
[13] = biological target: Casein kinase I isoform gamma-2 (Homo sapiens) (UniProt P78368); conditions: Compound concentration 100.0 nM
[14] = biological target: Casein kinase II subunit alpha' (Homo sapiens) (UniProt P19784); conditions: Compound concentration 100.0 nM
[15] = biological target: Ephrin type-A receptor 1 (Homo sapiens) (UniProt P21709); conditions: Compound concentration 100.0 nM
[16] = biological target: Ephrin type-A receptor 6 (Homo sapiens) (UniProt Q9UF33); conditions: Compound concentration 100.0 nM
[17] = biological target: Vascular endothelial growth factor receptor 1 (Homo sapiens) (UniProt P17948); conditions: Compound concentration 100.0 nM
[18] = system: Receptor-type tyrosine-protein kinase FLT3 (Homo sapiens), P36888 [UNDEFINED MUTATION]; conditions: Compound concentration 100.0 nM
[19] = biological target: Tyrosine-protein kinase FRK (Homo sapiens) (UniProt P42685); conditions: Compound concentration 100.0 nM
[20] = biological target: G protein-coupled receptor kinase 3 (Homo sapiens) (UniProt P35626); conditions: Compound concentration 100.0 nM
[21] = biological target: Rhodopsin kinase GRK7 (Homo sapiens) (UniProt Q8WTQ7); conditions: Compound concentration 100.0 nM
[22] = biological target: Homeodomain-interacting protein kinase 1 (Homo sapiens) (UniProt Q86Z02); conditions: Compound concentration 100.0 nM
[23] = biological target: Insulin receptor-related protein (Homo sapiens) (UniProt P14616); conditions: Compound concentration 100.0 nM
[24] = biological target: Serine/threonine-protein kinase LATS2 (Homo sapiens) (UniProt Q9NRM7); conditions: Compound concentration 100.0 nM
[25] = biological target: Myosin light chain kinase, smooth muscle (Homo sapiens) (UniProt Q15746); conditions: Compound concentration 100.0 nM
[26] = biological target: Serine/threonine-protein kinase 38 (Homo sapiens) (UniProt Q15208); conditions: Compound concentration 100.0 nM
[27] = biological target: Serine/threonine-protein kinase Nek10 (Homo sapiens) (UniProt Q6ZWH5); conditions: Compound concentration 100.0 nM
[28] = biological target: Phosphatidylinositol 4-phosphate 5-kinase type-1 gamma (Homo sapiens) (UniProt O60331); conditions: Compound concentration 100.0 nM
[29] = biological target: cAMP-dependent protein kinase catalytic subunit beta (Homo sapiens) (UniProt P22694); conditions: Compound concentration 100.0 nM
[30] = biological target: Serine/threonine-protein kinase PLK2 (Homo sapiens) (UniProt Q9NYY3); conditions: Compound concentration 100.0 nM
[31] = biological target: Serine/threonine-protein kinase PLK3 (Homo sapiens) (UniProt Q9H4B4); conditions: Compound concentration 100.0 nM
[32] = biological target: RAF proto-oncogene serine/threonine-protein kinase (Homo sapiens) (UniProt P04049); conditions: Compound concentration 100.0 nM
[33] = biological target: Serine/threonine-protein kinase RIO3 (Homo sapiens) (UniProt O14730); conditions: Compound concentration 100.0 nM
[34] = biological target: Ribosomal protein S6 kinase alpha-4 (Homo sapiens) (UniProt O75676); conditions: Compound concentration 100.0 nM
[35] = biological target: Serine/threonine-protein kinase TAO3 (Homo sapiens) (UniProt Q9H2K8); conditions: Compound concentration 100.0 nM
[36] = biological target: Non-receptor tyrosine-protein kinase TYK2 (Homo sapiens) (UniProt P29597); conditions: Compound concentration 100.0 nM
[37] = biological target: Histamine H2 receptor (Homo sapiens) (UniProt P25021); conditions: Compound concentration 10.0 uM

Chain of Serine/threonine-protein kinase LATS2 (Homo sapiens) (Q9NRM7 whole entry): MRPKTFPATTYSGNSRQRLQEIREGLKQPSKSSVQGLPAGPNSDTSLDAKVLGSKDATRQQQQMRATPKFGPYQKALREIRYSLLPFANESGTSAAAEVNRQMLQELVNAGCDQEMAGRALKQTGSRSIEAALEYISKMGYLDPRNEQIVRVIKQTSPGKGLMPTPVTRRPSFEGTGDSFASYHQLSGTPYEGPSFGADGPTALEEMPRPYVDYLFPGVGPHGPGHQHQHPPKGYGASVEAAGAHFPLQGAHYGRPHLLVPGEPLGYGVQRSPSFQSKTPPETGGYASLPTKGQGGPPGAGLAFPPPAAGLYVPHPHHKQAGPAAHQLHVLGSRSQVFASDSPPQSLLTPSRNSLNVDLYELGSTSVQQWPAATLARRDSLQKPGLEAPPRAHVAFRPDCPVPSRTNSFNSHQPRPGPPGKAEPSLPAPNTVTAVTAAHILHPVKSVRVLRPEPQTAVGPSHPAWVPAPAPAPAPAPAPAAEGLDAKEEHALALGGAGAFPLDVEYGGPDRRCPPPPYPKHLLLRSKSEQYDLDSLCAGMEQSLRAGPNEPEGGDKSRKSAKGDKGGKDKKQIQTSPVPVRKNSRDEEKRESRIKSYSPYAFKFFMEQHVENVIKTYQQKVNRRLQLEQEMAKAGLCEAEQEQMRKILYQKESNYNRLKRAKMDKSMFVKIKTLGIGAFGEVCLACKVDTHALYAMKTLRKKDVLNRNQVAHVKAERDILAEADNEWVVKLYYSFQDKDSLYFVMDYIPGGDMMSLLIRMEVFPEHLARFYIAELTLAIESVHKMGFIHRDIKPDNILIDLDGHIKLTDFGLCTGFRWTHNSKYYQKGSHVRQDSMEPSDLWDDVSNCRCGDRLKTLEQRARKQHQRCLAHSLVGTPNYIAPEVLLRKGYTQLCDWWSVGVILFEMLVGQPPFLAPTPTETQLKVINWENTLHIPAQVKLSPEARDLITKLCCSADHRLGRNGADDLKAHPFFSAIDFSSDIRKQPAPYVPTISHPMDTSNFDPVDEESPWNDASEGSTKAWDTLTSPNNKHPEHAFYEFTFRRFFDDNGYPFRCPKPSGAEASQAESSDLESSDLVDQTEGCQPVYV
Chain of Homeodomain-interacting protein kinase 1 (Homo sapiens) (Q86Z02 whole entry, looked up): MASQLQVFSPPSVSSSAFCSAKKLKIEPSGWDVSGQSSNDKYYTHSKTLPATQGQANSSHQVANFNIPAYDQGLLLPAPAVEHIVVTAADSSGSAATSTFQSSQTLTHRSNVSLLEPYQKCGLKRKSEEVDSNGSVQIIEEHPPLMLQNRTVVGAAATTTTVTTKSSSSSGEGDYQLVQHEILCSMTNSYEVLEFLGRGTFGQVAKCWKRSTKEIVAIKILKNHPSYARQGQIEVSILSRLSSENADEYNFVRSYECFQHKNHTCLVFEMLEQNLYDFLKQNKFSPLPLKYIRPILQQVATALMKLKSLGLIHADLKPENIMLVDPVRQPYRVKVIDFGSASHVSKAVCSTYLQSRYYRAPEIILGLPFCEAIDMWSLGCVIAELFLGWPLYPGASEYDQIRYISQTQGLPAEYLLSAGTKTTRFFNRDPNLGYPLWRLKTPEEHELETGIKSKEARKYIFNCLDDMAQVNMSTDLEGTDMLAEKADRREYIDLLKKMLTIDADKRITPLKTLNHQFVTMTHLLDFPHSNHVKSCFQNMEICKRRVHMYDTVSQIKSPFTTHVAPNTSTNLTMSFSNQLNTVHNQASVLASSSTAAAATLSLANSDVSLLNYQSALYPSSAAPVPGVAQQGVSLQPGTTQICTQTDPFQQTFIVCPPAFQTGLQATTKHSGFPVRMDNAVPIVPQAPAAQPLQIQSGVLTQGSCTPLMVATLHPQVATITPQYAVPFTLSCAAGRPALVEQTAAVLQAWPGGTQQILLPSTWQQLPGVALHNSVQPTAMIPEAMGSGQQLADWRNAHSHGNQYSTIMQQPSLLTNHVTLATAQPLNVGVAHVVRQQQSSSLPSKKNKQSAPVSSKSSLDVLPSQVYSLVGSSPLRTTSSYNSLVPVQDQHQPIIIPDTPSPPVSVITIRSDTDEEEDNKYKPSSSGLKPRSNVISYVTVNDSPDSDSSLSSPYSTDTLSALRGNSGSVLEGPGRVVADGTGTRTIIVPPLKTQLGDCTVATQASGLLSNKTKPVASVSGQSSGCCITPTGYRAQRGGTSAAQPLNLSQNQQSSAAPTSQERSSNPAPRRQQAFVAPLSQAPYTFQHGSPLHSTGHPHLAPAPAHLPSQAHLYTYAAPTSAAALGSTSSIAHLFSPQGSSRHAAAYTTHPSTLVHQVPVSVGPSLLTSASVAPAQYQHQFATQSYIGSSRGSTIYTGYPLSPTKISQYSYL
Chain of Ephrin type-A receptor 1 (Homo sapiens) (P21709 whole entry): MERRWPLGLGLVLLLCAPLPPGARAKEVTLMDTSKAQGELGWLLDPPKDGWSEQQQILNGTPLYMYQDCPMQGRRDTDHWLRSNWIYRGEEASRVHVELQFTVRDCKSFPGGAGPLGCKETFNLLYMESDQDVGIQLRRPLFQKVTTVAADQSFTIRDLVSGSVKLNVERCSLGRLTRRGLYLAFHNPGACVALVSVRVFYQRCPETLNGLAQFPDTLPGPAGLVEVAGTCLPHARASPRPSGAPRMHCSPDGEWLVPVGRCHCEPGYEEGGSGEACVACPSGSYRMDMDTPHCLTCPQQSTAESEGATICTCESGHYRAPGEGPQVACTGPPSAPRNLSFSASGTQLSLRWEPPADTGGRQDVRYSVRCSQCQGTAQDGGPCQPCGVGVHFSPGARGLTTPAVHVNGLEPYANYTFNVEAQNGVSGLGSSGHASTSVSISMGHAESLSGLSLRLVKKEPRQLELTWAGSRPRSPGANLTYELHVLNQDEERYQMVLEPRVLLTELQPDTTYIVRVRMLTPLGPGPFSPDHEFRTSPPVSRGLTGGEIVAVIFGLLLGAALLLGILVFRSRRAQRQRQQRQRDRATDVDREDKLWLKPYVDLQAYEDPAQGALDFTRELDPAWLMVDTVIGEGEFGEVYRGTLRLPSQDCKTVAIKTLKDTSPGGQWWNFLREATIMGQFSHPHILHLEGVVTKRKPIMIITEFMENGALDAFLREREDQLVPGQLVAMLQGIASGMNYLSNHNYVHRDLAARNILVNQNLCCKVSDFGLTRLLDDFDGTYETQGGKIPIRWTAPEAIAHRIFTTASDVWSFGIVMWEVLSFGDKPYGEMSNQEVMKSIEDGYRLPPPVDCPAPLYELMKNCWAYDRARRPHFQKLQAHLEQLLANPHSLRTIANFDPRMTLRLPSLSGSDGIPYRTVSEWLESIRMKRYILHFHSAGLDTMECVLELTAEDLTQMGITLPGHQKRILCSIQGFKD
Chain of RAF proto-oncogene serine/threonine-protein kinase (Homo sapiens) (P04049 whole entry): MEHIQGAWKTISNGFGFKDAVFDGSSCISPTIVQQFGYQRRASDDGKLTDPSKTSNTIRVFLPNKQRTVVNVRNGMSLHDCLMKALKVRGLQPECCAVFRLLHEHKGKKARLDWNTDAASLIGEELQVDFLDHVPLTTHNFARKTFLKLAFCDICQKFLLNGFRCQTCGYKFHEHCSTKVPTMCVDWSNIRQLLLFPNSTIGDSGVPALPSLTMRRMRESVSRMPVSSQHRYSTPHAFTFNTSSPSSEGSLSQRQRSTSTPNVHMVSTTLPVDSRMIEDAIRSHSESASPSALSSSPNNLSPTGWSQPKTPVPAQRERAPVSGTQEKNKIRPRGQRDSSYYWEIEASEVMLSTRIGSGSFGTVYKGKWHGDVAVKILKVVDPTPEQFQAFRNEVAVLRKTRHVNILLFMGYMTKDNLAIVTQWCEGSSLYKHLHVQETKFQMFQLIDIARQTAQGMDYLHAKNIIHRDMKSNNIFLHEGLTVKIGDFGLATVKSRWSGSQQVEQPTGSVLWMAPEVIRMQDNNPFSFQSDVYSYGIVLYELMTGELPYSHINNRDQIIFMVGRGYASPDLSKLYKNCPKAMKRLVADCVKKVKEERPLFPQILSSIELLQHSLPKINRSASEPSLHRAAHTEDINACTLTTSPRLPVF
Chain of Receptor-type tyrosine-protein kinase FLT3 (Homo sapiens), P36888 [UNDEFINED MUTATION] (P36888 whole entry, looked up, change not shown): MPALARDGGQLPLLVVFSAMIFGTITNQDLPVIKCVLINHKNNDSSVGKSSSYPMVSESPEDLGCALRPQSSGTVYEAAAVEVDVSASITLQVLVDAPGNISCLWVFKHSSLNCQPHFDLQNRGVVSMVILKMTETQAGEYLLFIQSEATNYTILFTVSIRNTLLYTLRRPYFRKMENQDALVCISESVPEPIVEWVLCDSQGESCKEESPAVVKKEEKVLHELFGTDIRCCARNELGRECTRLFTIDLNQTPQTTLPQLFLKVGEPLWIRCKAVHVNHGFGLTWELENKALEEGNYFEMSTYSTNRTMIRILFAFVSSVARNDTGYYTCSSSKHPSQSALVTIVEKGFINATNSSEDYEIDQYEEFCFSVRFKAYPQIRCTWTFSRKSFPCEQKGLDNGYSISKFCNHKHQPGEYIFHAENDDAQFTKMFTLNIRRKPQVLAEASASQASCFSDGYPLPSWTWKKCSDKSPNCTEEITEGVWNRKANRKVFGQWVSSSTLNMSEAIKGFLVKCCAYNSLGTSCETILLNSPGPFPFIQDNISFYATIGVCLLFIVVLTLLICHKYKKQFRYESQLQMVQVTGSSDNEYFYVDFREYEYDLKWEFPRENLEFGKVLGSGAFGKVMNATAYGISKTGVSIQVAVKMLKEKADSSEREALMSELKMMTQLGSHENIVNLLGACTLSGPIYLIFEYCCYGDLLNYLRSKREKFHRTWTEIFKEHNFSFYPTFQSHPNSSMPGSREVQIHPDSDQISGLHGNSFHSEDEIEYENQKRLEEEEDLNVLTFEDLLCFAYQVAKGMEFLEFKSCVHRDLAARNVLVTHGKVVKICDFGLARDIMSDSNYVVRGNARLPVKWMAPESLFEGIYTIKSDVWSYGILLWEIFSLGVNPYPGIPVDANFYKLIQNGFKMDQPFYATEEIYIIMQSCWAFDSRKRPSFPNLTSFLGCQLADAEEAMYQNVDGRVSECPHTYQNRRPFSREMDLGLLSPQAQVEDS

SMILES	residual activity [1] [%]	residual activity [2] [%]	residual activity [3] [%]	residual activity [4] [%]	residual activity [5] [%]	residual activity [6] [%]	residual activity [7] [%]	residual activity [8] [%]	residual activity [9] [%]	residual activity [10] [%]	residual activity [11] [%]	residual activity [12] [%]	residual activity [13] [%]	residual activity [14] [%]	residual activity [15] [%]	residual activity [16] [%]	residual activity [17] [%]	residual activity [18] [%]	residual activity [19] [%]	residual activity [20] [%]	also measured
Cn1cc(Cl)c2c(Oc3c(F)cc(Nc4cc(Cl)nc(N)n4)cc3F)ccnc21 [BAY-4900]	84	85	87	100	100	100	100	78	86	100	91	98	83	89	100	100	100	61	81	83	residual activity [21]: 82%; residual activity [22]: 100%; residual activity [23]: 100%; residual activity [24]: 91%; residual activity [25]: 95%; residual activity [26]: 87%; residual activity [27]: 66%; residual activity [28]: 93%; residual activity [29]: 92%; residual activity [30]: 83%; residual activity [31]: 98%; residual activity [32]: 91%; residual activity [33]: 93%; residual activity [34]: 87%; residual activity [35]: 100%; residual activity [36]: 81%; inhibition [37]: 16.7%
Cc1c[nH]c2nccc(Oc3c(F)cc(Nc4cc(Cl)nc(N)n4)cc3F)c12 [BAY-549]	80	94	94	100	98	99	100	82	68	92	91	89	94	86	100	100	100	54	100	78	residual activity [21]: 68%; residual activity [22]: 100%; residual activity [23]: 91%; residual activity [24]: 0.7%; residual activity [25]: 80%; residual activity [26]: 89%; residual activity [27]: 75%; residual activity [28]: 78%; residual activity [29]: 36%; residual activity [30]: 59%; residual activity [31]: 83%; residual activity [32]: 75%; residual activity [33]: 93%; residual activity [34]: 100%; residual activity [35]: 100%; residual activity [36]: 78%; inhibition [37]: 23.7%
